Bridge positions count the residues as written; N and C are the ends. Square brackets hold non-standard residues; d marks the D form. Peptide text beside a SMILES is read from it. * marks the point of attachment. ξ: configuration not given here. Ala(1H-tetrazol-5-yl) = N[C@@H](Cc1nnn[nH]1)C(=O)O; Phe(4-COOH) = N[C@@H](Cc1ccc(C(=O)O)cc1)C(=O)O; Bip = N[C@@H](Cc1ccc(-c2ccccc2)cc1)C(=O)O; Lys(Me3) = C[N+](C)(C)CCCC[C@H](N)C(=O)O; Phe(3-CN) = N#Cc1cccc(C[C@H](N)C(=O)O)c1; Phe(3-Me) = Cc1cccc(C[C@H](N)C(=O)O)c1; aIle = CC[C@@H](C)[C@H](N)C(=O)O; 3Pal = N[C@@H](Cc1cccnc1)C(=O)O; 4Pal = N[C@@H](Cc1ccncc1)C(=O)O; Cha = N[C@@H](CC1CCCCC1)C(=O)O; Cit = NC(=O)NCCC[C@H](N)C(=O)O; Ile(3ξ) = CCC(C)[C@H](N)C(=O)O; Thr(3ξ) = CC(O)[C@H](N)C(=O)O; dOrn = NCCC[C@@H](N)C(=O)O; Carboxymethyl = O=C(O)C*; NMeA = CN[C@@H](C)C(=O)O; Pra = C#CC[C@H](N)C(=O)O; Dab = NCC[C@H](N)C(=O)O; Dap = NC[C@H](N)C(=O)O; ξV = CC(C)C(N)C(=O)O; ξC = NC(CS)C(=O)O

For this assay, the target named is T1, PE-labeled human PD-L1-Ig binding to Jurkat cell line over-expressing human PD-1 (Jurkat-PD-1) (Homo sapiens, UniProt Q15116).
T1 construct: expressed in transfected cells; host or cells: Jurkat
T1 sequence (Q15116 25-288): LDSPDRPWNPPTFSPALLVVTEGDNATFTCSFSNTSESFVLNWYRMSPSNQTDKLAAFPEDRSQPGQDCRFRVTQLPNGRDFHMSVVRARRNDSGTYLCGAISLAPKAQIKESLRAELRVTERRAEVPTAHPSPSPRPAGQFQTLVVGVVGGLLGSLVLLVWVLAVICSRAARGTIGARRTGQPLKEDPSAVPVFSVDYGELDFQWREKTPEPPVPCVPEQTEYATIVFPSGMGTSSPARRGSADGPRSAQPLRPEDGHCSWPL
Kind of assay: Jurkat-PD-1 Cell Binding High-Content Screening Assay (CBA): Method 1. The settings on record: Jurkat-hPD-1 cells, PE-labeled PD-L1-Ig 20 nM final; read-out: Jurkat HPDL1 PD1 IC50 (uM) (Method 1).
As usually defined, the IC50 is the point on the concentration scale where inhibition reaches its midpoint. With `CCC(C)[C@@H]1NC(=O)[C@H](Cc2ccc(-c3ccccc3)cc2)NC(=O)[C@H](C(C)C)NC(=O)[C@H](Cc2cccc(C)c2)NC(=O)[C@H](CC(=O)O)NC(=O)[C@H](Cc2ccc(OCC(=O)O)cc2)NC(=O)[C@H](C(C)O)NC(=O)CSC[C@@H](C(=O)N[C@@H](CCN)C(N)=O)NC(=O)[C@H](C(C)O)NC(=O)[C@H](C(C)C)NC(=O)[C@H](CC2CCCCC2)NC(=O)[C@H](CCN)NC(=O)[C@@H](CC(C)C)NC(=O)[C@H](C)N(C)C1=O` (stereo partly drawn) [Compound 2116] ({CH2CO}-[Thr(3ξ)]Y(Carboxymethyl)D[Phe(3-Me)]V[Bip][Ile(3ξ)][NMeA][dL][Dab][Cha]V[Thr(3ξ)]C[Dab]-NH2; thioether N-14), the IC50 came to 0.01 µM.

For `CC(C)C[C@H]1NC(=O)[C@H](C)N(C)C(=O)[C@H](C(C)C)NC(=O)[C@H](Cc2ccc(-c3ccccc3)cc2)NC(=O)[C@H](C(C)C)NC(=O)[C@H](Cc2c[nH]c3ccccc23)NC(=O)[C@H](CC(=O)O)NC(=O)[C@H](Cc2ccc(O)cc2)NC(=O)[C@H](Cc2ccc(OCC(=O)O)cc2)NC(=O)CSC[C@@H](C(=O)N[C@@H](C)C(N)=O)NC(=O)[C@H]([C@@H](C)O)NC(=O)[C@H](C(C)C)NC(=O)[C@H](CC2CCCCC2)NC(=O)[C@H](CCCNC(=N)N)NC1=O` [Compound 1486] ({CH2CO}-Y(Carboxymethyl)YDWV[Bip]V[NMeA][dL]R[Cha]VTCA-NH2; thioether N-14), the IC50 was determined as 0.62 µM.

As to `CC(C)C[C@@H]1NC(=O)[C@H](CCCNC(=N)N)NC(=O)[C@@H](CC(C)C)NC(=O)[C@H](C)N(C)C(=O)[C@H](CCCNC(N)=O)NC(=O)[C@H](Cc2ccc(-c3ccccc3)cc2)NC(=O)[C@H](C(C)C)NC(=O)[C@H](Cc2c[nH]c3ccccc23)NC(=O)[C@H](CC(=O)O)NC(=O)[C@H](Cc2ccc(O)cc2)NC(=O)[C@H](CC(N)=O)NC(=O)CSC[C@@H](C(=O)N[C@@H](C)C(N)=O)NC(=O)[C@H](CO)NC(=O)[C@H](C(C)C)NC1=O` [Compound 1227] ({CH2CO}-NYDWV[Bip][Cit][NMeA][dL]RLVSCA-NH2; thioether N-14), the IC50 stood at 0.04 µM.

Turning to `CC[C@@H](C)[C@@H]1NC(=O)[C@H](Cc2ccc(-c3ccccc3)cc2)NC(=O)[C@H](CC(C)C)NC(=O)[C@H](Cc2c[nH]c3ccccc23)NC(=O)[C@H](CC(=O)O)NC(=O)[C@H](Cc2ccc(C(=O)O)cc2)NC(=O)[C@H](Cc2ccc(OCC(=O)O)cc2)NC(=O)CSC[C@@H](C(=O)N[C@@H](CCCCN)C(N)=O)NC(=O)[C@H](CN)NC(=O)C(C(C)C)NC(=O)[C@H](CC(C)C)NC(=O)[C@H](CC(N)=O)NC(=O)[C@@H](CC(C)C)NC(=O)[C@H](C)N(C)C1=O` (stereo partly drawn) [Compound 2108] ({CH2CO}-Y(Carboxymethyl)[Phe(4-COOH)]DWL[Bip][aIle][NMeA][dL]NL[ξV][Dap]CK-NH2; thioether N-14), the IC50 worked out at 0.11 µM.

For the compound `CC(C)C[C@@H]1NC(=O)[C@H](CCCCN)NC(=O)[C@@H](CC(C)C)NC(=O)[C@H](C)N(C)C(=O)[C@H](CCCNC(N)=O)NC(=O)[C@H](Cc2ccc(-c3ccccc3)cc2)NC(=O)[C@H](C(C)C)NC(=O)[C@H](Cc2c[nH]c3ccccc23)NC(=O)[C@H](CC(=O)O)NC(=O)[C@H](Cc2ccc(O)cc2)NC(=O)[C@H](CC(N)=O)NC(=O)CSC[C@@H](C(=O)N[C@@H](C)C(N)=O)NC(=O)[C@H](CO)NC(=O)[C@H](C(C)C)NC1=O` [Compound 1473] ({CH2CO}-NYDWV[Bip][Cit][NMeA][dL]KLVSCA-NH2; thioether N-14), the IC50 was determined as 0.04 µM.

With `CC(C)C[C@@H]1NC(=O)[C@H](Cc2c[nH]c3ccccc23)NC(=O)[C@H](CC(=O)O)NC(=O)[C@H](Cc2ccc(O)cc2)NC(=O)[C@H](Cc2ccccc2)NC(=O)CSC[C@@H](C(=O)N[C@@H](C)C(N)=O)NC(=O)[C@H](CO)NC(=O)[C@H](C(C)C)NC(=O)[C@H](CC(C)C)NC(=O)[C@H](CC(N)=O)NC(=O)[C@@H](CCCN)NC(=O)[C@H](C)N(C)C(=O)[C@H](C(C)C)NC(=O)[C@H](Cc2ccc(-c3ccccc3)cc2)NC1=O` [Compound 1802] ({CH2CO}-FYDWL[Bip]V[NMeA][dOrn]NLVSCA-NH2; thioether N-14), the IC50 came out at 0.19 µM.

Regarding `CC(C)C[C@@H]1NC(=O)[C@H](CCN)NC(=O)[C@@H](CC(C)C)NC(=O)[C@H](C)N(C)C(=O)[C@H](CCCNC(N)=O)NC(=O)[C@H](Cc2ccc(-c3ccccc3)cc2)NC(=O)[C@H](C(C)C)NC(=O)[C@H](Cc2c[nH]c3ccccc23)NC(=O)[C@H](CC(=O)O)NC(=O)[C@H](Cc2cccc(C#N)c2)NC(=O)[C@H](CC(N)=O)NC(=O)CSC[C@@H](C(=O)N[C@@H](C)C(N)=O)NC(=O)[C@H]([C@@H](C)O)NC(=O)[C@H](C(C)C)NC1=O` [Compound 1314] ({CH2CO}-N[Phe(3-CN)]DWV[Bip][Cit][NMeA][dL][Dab]LVTCA-NH2; thioether N-14), the IC50 is 0.04 µM.

As for `CCC(C)[C@@H]1NC(=O)[C@H](Cc2ccc(-c3ccccc3)cc2)NC(=O)[C@H](C(C)C)NC(=O)[C@H](Cc2c[nH]c3ccccc23)NC(=O)[C@H](CC(=O)O)NC(=O)[C@H](Cc2ccc(O)cc2)NC(=O)[C@H](CCCC[N+](C)(C)C)NC(=O)CSCC(C(=O)NCC(=O)O)NC(=O)[C@H](C(C)O)NC(=O)[C@H](C(C)C)NC(=O)[C@H](CC2CCCCC2)NC(=O)[C@H](CCN)NC(=O)[C@@H](CC(C)C)NC(=O)[C@H](C)N(C)C1=O` (stereo partly drawn) [Compound 2217] ({CH2CO}-[Lys(Me3)]YDWV[Bip][Ile(3ξ)][NMeA][dL][Dab][Cha]V[Thr(3ξ)][ξC]G-OH; thioether N-14), the IC50 is 0.01 µM.

Regarding `CC(C)C[C@@H]1NC(=O)[C@H](CCCNC(=N)N)NC(=O)[C@@H](CC(C)C)NC(=O)[C@H](C)N(C)C(=O)[C@H](CCCNC(=N)N)NC(=O)[C@H](Cc2ccc(-c3ccccc3)cc2)NC(=O)[C@H](C(C)C)NC(=O)[C@H](Cc2c[nH]c3ccccc23)NC(=O)[C@H](CC(=O)O)NC(=O)[C@H](Cc2ccc(O)cc2)NC(=O)[C@H](Cc2cccnc2)NC(=O)CSC[C@@H](C(=O)N[C@@H](C)C(N)=O)NC(=O)[C@H]([C@@H](C)O)NC(=O)[C@H](C(C)C)NC1=O` [Compound 1049] ({CH2CO}-[3Pal]YDWV[Bip]R[NMeA][dL]RLVTCA-NH2; thioether N-14), the IC50 stood at 0.01 µM.

Take `C#CC[C@H](NC(=O)CNC(=O)[C@@H]1CSCC(=O)N[C@@H](Cc2ccc(OCC(=O)O)cc2)C(=O)N[C@@H](Cc2ccc(C(=O)O)cc2)C(=O)N[C@@H](CC(=O)O)C(=O)N[C@@H](Cc2c[nH]c3ccccc23)C(=O)N[C@@H](CC(C)C)C(=O)N[C@@H](Cc2ccc(-c3ccccc3)cc2)C(=O)N[C@@H](C(C)C)C(=O)N(C)[C@@H](C)C(=O)N[C@H](CC(C)C)C(=O)N[C@@H](CCN)C(=O)N[C@@H](CC2CCCCC2)C(=O)N[C@@H](C(C)C)C(=O)N[C@@H](CO)C(=O)N1)C(=O)O` [Compound 1934] ({CH2CO}-Y(Carboxymethyl)[Phe(4-COOH)]DWL[Bip]V[NMeA][dL][Dab][Cha]VSCG[Pra]-OH; thioether N-14): the IC50 stood at 0.01 µM.

Consider `CC(C)C[C@@H]1NC(=O)[C@H](CCN)NC(=O)[C@@H](CC(C)C)NC(=O)[C@H](C)N(C)C(=O)[C@H](Cc2cnc[nH]2)NC(=O)[C@H](Cc2ccc(-c3ccccc3)cc2)NC(=O)[C@H](C(C)C)NC(=O)[C@H](Cc2c[nH]c3ccccc23)NC(=O)[C@H](CC(=O)O)NC(=O)[C@H](Cc2ccc(O)cc2)NC(=O)[C@H](Cc2cccnc2)NC(=O)CSC[C@@H](C(=O)N[C@@H](C)C(N)=O)NC(=O)[C@H]([C@@H](C)O)NC(=O)[C@H](C(C)C)NC1=O` [Compound 1374] ({CH2CO}-[3Pal]YDWV[Bip]H[NMeA][dL][Dab]LVTCA-NH2; thioether N-14), for which the IC50 amounted to 0.04 µM.

With `CC(C)C[C@@H]1NC(=O)[C@H](Cc2c[nH]c3ccccc23)NC(=O)[C@H](CC(=O)O)NC(=O)[C@H](Cc2ccncc2)NC(=O)[C@H](Cc2ccc(OCC(=O)O)cc2)NC(=O)CSC[C@@H](C(=O)N[C@@H](C)C(N)=O)NC(=O)[C@H](CO)NC(=O)[C@H](C(C)C)NC(=O)[C@H](CC(C)C)NC(=O)[C@H](CC(N)=O)NC(=O)[C@@H](C)NC(=O)[C@H](C)N(C)C(=O)[C@H](C(C)C)NC(=O)[C@H](Cc2ccc(-c3ccccc3)cc2)NC1=O` [Compound 1564] ({CH2CO}-Y(Carboxymethyl)[4Pal]DWL[Bip]V[NMeA][dA]NLVSCA-NH2; thioether N-14), the IC50 stood at 0.01 µM.

On to `CC(C)C[C@@H]1NC(=O)[C@H](CCC(=O)O)NC(=O)[C@@H](CC(C)C)NC(=O)[C@H](C)N(C)C(=O)[C@H](CCCCN)NC(=O)[C@H](Cc2ccc(-c3ccccc3)cc2)NC(=O)[C@H](C(C)C)NC(=O)[C@H](Cc2c[nH]c3ccccc23)NC(=O)[C@H](CC(=O)O)NC(=O)[C@H](Cc2ccc(O)cc2)NC(=O)[C@H](Cc2ccncc2)NC(=O)CSC[C@@H](C(=O)N[C@@H](C)C(N)=O)NC(=O)[C@H](C(C)O)NC(=O)[C@H](C(C)C)NC1=O` (stereo partly drawn) [Compound 2058] ({CH2CO}-[4Pal]YDWV[Bip]K[NMeA][dL]ELV[Thr(3ξ)]CA-NH2; thioether N-14), for which the IC50 amounted to 0.04 µM.

Take `CC(C)C[C@@H]1NC(=O)[C@H](CCCCN)NC(=O)[C@@H](CC(C)C)NC(=O)[C@H](C)N(C)C(=O)[C@H](CCCNC(=N)N)NC(=O)[C@H](Cc2ccc(-c3ccccc3)cc2)NC(=O)[C@H](C(C)C)NC(=O)[C@H](Cc2c[nH]c3ccccc23)NC(=O)[C@H](CC(=O)O)NC(=O)[C@H](Cc2ccc(O)cc2)NC(=O)[C@H](CC(N)=O)NC(=O)CSC[C@@H](C(=O)N[C@@H](C)C(N)=O)NC(=O)[C@H]([C@@H](C)O)NC(=O)[C@H](C(C)C)NC1=O` [Compound 1280] ({CH2CO}-NYDWV[Bip]R[NMeA][dL]KLVTCA-NH2; thioether N-14): the IC50 was found to be 0.08 µM.

In the case of `CC(C)C[C@@H]1NC(=O)[C@H](Cc2c[nH]c3ccccc23)NC(=O)[C@H](Cc2nn[nH]n2)NC(=O)[C@H](Cc2ccc(O)cc2)NC(=O)[C@H](Cc2ccccc2)NC(=O)CSC[C@@H](C(=O)N[C@@H](C)C(N)=O)NC(=O)[C@H](CO)NC(=O)[C@H](C(C)C)NC(=O)[C@H](CC(C)C)NC(=O)[C@H](CC(N)=O)NC(=O)[C@@H](C)NC(=O)[C@H](C)N(C)C(=O)[C@H](C(C)C)NC(=O)[C@H](Cc2ccc(-c3ccccc3)cc2)NC1=O` [Compound 1540] ({CH2CO}-FY[Ala(1H-tetrazol-5-yl)]WL[Bip]V[NMeA][dA]NLVSCA-NH2; thioether N-14), the IC50 came to 0.03 µM.

These data come from patent publication US20240409585A1, “MACROCYCLIC IMMUNOMODULATORS” (priority 2021, published 2024).
